Experimental data: patent US20250049832A1, “CRYSTAL FORM OF NUCLEOSIDE COMPOUND” (priority 2021, published 2025)
In brackets after ≈: the same amount, converted by molar mass.

What was measured:
[1] = Solid stability study (XRPD and HPLC purity after storage); format: physicochemical
Description: X-ray powder diffraction patterns were collected using a zero-background sample plate on a Bruker D8 Advance X-ray diffractometer equipped with an autosampler. The radiation source used was Cu Kα (λ=1.5418 Å), with the X-ray tube voltage set at 40 kV and the X-ray tube current set at 40 mA. The divergence slit for the X-rays was 0.6 mm. A suitable amount of the sample was placed in the center of the zero-background sample plate under the ambient condition and lightly pressed with a clean glass slide to obtain a smooth, flat surface. The zero-background sample holder was then fixed. Diffraction analysis of the sample was performed with a scan step size of 0.02° (2θ) over a range of 3-40° (2θ). The software used for data collection was DIFFRAC.COMMANDER, and the data were analyzed and presented using DIFFRAC.EVA. The instrument used for liquid chromatography analysis is the Agilent HPLC 1260 series. [table] The ATV014 crystalline form I obtained from Example 2, batch number 41579-025-C1, was used for solid stability studies. The samples were placed under the conditions shown in Table 5, and then their XRPD and purity were tested.

physchem = format: physicochemical
Description: Based on the salt screening study results, the solubility of ATV014 crystalline form I obtained in Example 2, batch number 41579-025-C5, was determined at 37° C. in FaSSIF, FeSSIF, SGF, and water at 0.5 h, 2 h, and 24 h. The solubility of the sample is pH-dependent, meaning that the lower the pH, the higher the solubility.

[2] = Dynamic vapor sorption analysis (DVS), hygroscopicity; format: physicochemical; details: for DVS Hygroscopic weight gain %: 25° C., batch 41579-025-C5
Description: Vapor sorption/desorption data of the sample was obtained using DVS Intrinsic. A sample of 10-50 mg was weighed and placed in the sample chamber for automatic weighing. Parameters were set according to Table 1 to analyze the hygroscopicity of the sample.
The ATV014 crystalline form I obtained in Example 2 with batch number 41579-025-C5 was subjected to PLM (Polarized Light Microscopy Analysis), XRPD (X-ray Powder Diffraction), DSC (Differential Scanning calorimetry), TGA (Thermogravimetric Analysis), and DVS (Dynamic Vapor Sorption Instrument) testing.

[3] = Activity of ATV014 compared to GS-441524 (inventor's research)
Description: (§1) The compound represented by the formula ATV014 is a derivative of the compound GS-441524.

[4] = Description: as §1
SARS-CoV-2 = details: in vivo activity tests in mice; cited from earlier work
[5] = 40° C./75% RH, open container, 7 days
[6] = 60° C., closed container, 7 days
[7] = Room temperature/92.5% RH, open container, 7 days

## N#C[C@@]1(c2ccc3c(N)ncnn23)O[C@H](COC(=O)C2CCCCC2)[C@@H](O)[C@H]1O [ATV014 crystalline form I]
[1]; 0 day (start of stability study), batch 41579-025-C1
  Purity %: 98.12%
[1]; [5]
  Purity %: 98.09%
  XRPD result: No change
[1]; [6]
  Purity %: 98.10%
  XRPD result: No change
[1]; 7 days under 40° C./75% RH, 60° C., and 92.5% RH
  physical and chemical properties after storage: remained stable
[1]; [7]
  Purity %: 98.19%
  XRPD result: No change
physchem
  crystalline form of remaining solids during solubility determination (XRPD): the crystalline form did not change
physchem; 37 °C, pH 1.24, simulated gastric fluid, thermodynamic from solid
  Solubility: ~2900 µg/mL (≈ 7.22 mM)
physchem; 37 °C, pH 5.53, water, thermodynamic from solid
  Solubility: ~5 µg/mL (≈ 0.0125 mM)
physchem; 0.5 h, pH 1.24
  Solubility: 2480 µg/mL (≈ 6.18 mM)
physchem; 2 h, pH 1.24
  Solubility: 2560 µg/mL (≈ 6.38 mM)
physchem; 24 h, pH 1.24
  Solubility: 2860 µg/mL (≈ 7.12 mM)
physchem; 24 h, pH 5.53
  XPRD (remaining solid): Unchanged
physchem; simulated gi fluid, 24 h, pH 1.24
  XPRD (remaining solid): Unchanged
physchem; simulated gi fluid, 24 h, pH 4.95
  XPRD (remaining solid): Unchanged
physchem; simulated gi fluid, 24 h, pH 6.45
  XPRD (remaining solid): Unchanged
[2]
  hygroscopicity (DVS results): low hygroscopicity
[2]; 80% RH
  DVS Hygroscopic weight gain %: 80% RH: 0.31%.
[2]; 90% RH
  DVS Hygroscopic weight gain %: 90% RH: 0.40%.
[2]; after full sorption/desorption cycle
  Crystalline form after DVS testing: unchanged after

## N#C[C@@]1(c2ccc3c(N)ncnn23)O[C@H](COC(=O)C2CCCCC2)[C@@H](O)[C@H]1O [ATV014]
[3]
  activity compared to the compound GS-441524: better
[4]
  bioavailability compared to the compound GS-441524: better

## N#C[C@@]1(c2ccc3c(N)ncnn23)O[C@H](CO)[C@@H](O)[C@H]1O [GS-441524]
SARS-CoV-2
  antiviral activity compared to Remdesivir: superior antiviral activity compared to Remdesivir
